Reference: publication PMC10107917 (ACS Medicinal Chemistry Letters, 2023)
Bridge positions count the residues as written; N and C are the ends. Peptide text beside a SMILES is read from it.

Assays:
[1] = test system: furin-like enzyme activity in PANC-1 cell lysate; assay: Total furin-like enzyme activity in PANC-1 cell lysate; format: biochemical, human; details: peptide 100 µM
Experimental: The presence of furin in PANC-1 cell lysate was indicated by analyzing the release of fluorescent AMC product after incubation of furin substrate (Pyr-Arg-Thr-Lys-Arg-AMC) in the lysate, as described elsewhere.[31],[32] However, we are aware that this assay tends to reflect total furin-like enzyme activity rather than the activity of furin exclusively. This is the case because the liberation of AMC may be catalyzed not only by furin but also by an enzyme with a similar substrate preference, such as other PCs.[31] […] For comparison, the effect of a strong trypsin inhibitor, […] SFTI-1, on furin-like activity was insignificant under the same assay conditions. […] It is likely that SFTI-1 may provide protection for furin inhibitors from degradation by trypsin-like proteases. […]
µL for matriptases and 100 µL for furin. Measurements were carried out using excitation and emission wavelengths of 380 nm and 450 nm. The percentage inhibition of an enzyme was calculated relative to the control sample without an inhibitor. […]
Total furin-like enzyme inhibition/activity in PANC-1 cell lysates
Cell line and cell culture. The pancreatic cancer cell line, PANC-1, was obtained from the American Type Culture Collection, ATCC (Manassas, USA). PANC-1, a human pancreatic cancer cell line, was isolated from the pancreatic duct (ATCC, CRL-1469) and was cultured in Dulbecco’s Modified Eagle’s Medium (DMEM) by supplementing 10% fetal bovine serum (FBS) and 1% of penicillin/streptomycin (P/S). Cells were cultured at 37 °C with 5% CO2 in a humidified atmosphere. Cells were maintained in a 75 cm2 tissue culture flask. The medium was replaced every two days. The subcultivation ratio was […]
Preparation of lysates. PANC-1 cells were seeded in a Petri dishes. After 24 hours, […] were collected and centrifuged at 975 × g at 4 °C for 9 minutes. The supernatant was removed, and the cells were resuspended in a cold PBS buffer. The cells were centrifuged again at 900 × g at 4 °C for 5 minutes.
The supernatant was removed. Cells were suspended in Halt Protease Inhibitor Cocktail, EDTA-Free (100X) (Thermo Fisher Scientific). The samples were stored for 2 hours at -80°C. The samples were then defrosted and centrifuged at 16 000 × g at 4 °C for 20 minutes. The supernatant was stored at -80 […]
The inhibitory potency of selected peptides was examined in cell lysate alone or in presence of sunflower trypsin inhibitor (SFTI-1)6 sing furin fluorogenic substrate […] (Pepta Nova, Germany). Furin activity was determined by monitoring the AMC liberation over time with a plate reader. Measurements were performed using 96-well black plates (BRAND, Germany).
The general procedure was according to.7 In short: 20 µL of cell lysate (diluted 10 times with assay buffer pH 7.5 100 mM HEPES with 1 mM CaCl 2) was added to the well containing 60 µL of water, after 15 min in 37 °C 10 µL of peptide solution (final concentration in well 100 µM) was added. After 30 min incubation in 37 °C 10 µL substrate (100 µM final concentration) was added. […]
(§1) Next step was addition of appropriate peptide solution
(§2) (final concentration in well 100 µM) and 30 min incubation in 37 °C. After this time 10 µL substrate (100 µM final concentration) was added to the well. Percentage inhibition of the enzyme was calculated relative to the control sample without inhibitor.
(§3) Human serum from plasma (Sigma Aldrich, Germany) was prepared for the assay as referred previously.8 The experiments were carried out according to the procedure described before.2 The initial concentration of the peptide solutions was 1.54 mM. Each peptide solution was then diluted 10 times with human serum and incubated at 37 °C. Immediately after the start of incubation, 1, 2, 3, 5 and 24

[2] = Stability in human serum (HPLC); format: in vitro ADME; parameters: remaining at 5 h / remaining at 48 h: dose or concentration left out as unconfirmed; details: 37 °C; for remaining at 5 h: after 5 h of incubation, read-out: intact peptide detected by HPLC; for state of peptide in human serum: after 24 h; for remaining at 48 h: after 48 h of incubation, read-out: initial concentration of peptide remaining unchanged (HPLC)
Experimental: Next, we examined the stabilities of inhibitors 3, 5, 6, and FI in human serum (Figure 6). As expected, both monocyclic peptides (3 and FI) were degraded more rapidly than bicyclic inhibitors 5 and 6. After 5 h of incubation, about 25% of intact peptide 3 and 15% of FI were detected by HPLC. […] By contrast, the bicyclic peptides were clearly more resistant and stable. About 59% and 28% (based on HPLC data) of the initial concentrations of peptide 5 and peptide 6, respectively, remained unchanged even after 48 h of incubation. […] This possible protease-driven degradation was not confirmed in any additional experiments and must be treated with caution. It might be also speculated that the observed decrease in concentrations of both bicyclic peptides is related to binding to serum proteins during the long incubation process and subsequent sample preparation before HPLC analysis, as mentioned elsewhere.[36] Generally, our results are in accordance with the widely recognized observation that macrocyclization of peptides increases their stability. […]
as §1, §2
as §3, with “24 […]” for “24”
hours the samples of 200 μL were taken and mixed with 200 μL of acetonitrile to separate the human serum proteins. The formed precipitate was removed by centrifugation for 10 min at 13,000 rpm. The supernatant was stored in 3-4 °C for at least 1 hour before being analyzed by RP-HPLC (linear gradient 10-90% phase B, 40 min., Kinetex 5 μm XB-C18 100Å 150 x 4.6 mm) and MALDI-MS (Autoflex maX MALDI-TOF spectrometer, Bruker Daltonics, Germany). In order to determine peptide stability at each time point, the peptide peak area from recorded chromatograms was compared with the peptide peak area obtained directly after mixing peptide and plasma, and expressed as its percentage.
Molecular dynamics simulations […]
(Figure 5SA) bound to the furin active site were built based on the crystal structure of MT-SP1 in complex with SFTI-1 (PDB ID: 1P8J 2.0 Å) by aligning catalytic triad of both proteins in PyMOL, Molecular Graphics System, Version 2.0 Schrödinger, LLC software. Next, SFTI-1 peptide was replaced by one of the five designed ligands (Figure 5SB). Five resulting furin-inhibitor complexes were further used as starting structures for the molecular dynamic (MD) calculations.
The AMBER20 suite was used to perform MD simulations,9 ff14SBonlysc10 force field parameters were used. The initial complex structures were built in the xLeap module of AMBER20. The periodic boundary conditions with TIP3P11 octahedral water box and Na+ counterions were used. Two steps of energy minimization were performed: first 500 steepest descent and then 1000 conjugate gradient cycles with harmonic restraints of 10 kcal/mol/Å2 on the solute, next 3000 steepest descent and 3000 conjugate gradient cycles without restraints. Next, the systems were heated up to 300K for 10 ps in NVT ensemble followed by the simulations in NPT ensemble at the pressure of 105 Pa. Finally, five independent MD production runs of 100 ns for each furin-inhibitor complex were performed in NPT ensemble. The time integration step was 2 fs, the cutoff for non-bonded interactions was 8 Å, the SHAKE algorithm for the covalent bonds that included hydrogen atoms12 and the Particle Mesh Ewald procedure13 were used. The […]

## CC[C@H](C)[C@@H]1NC(=O)[C@@H]2CCCN2C(=O)[C@@H]2CCCN2C(=O)[C@H]([C@@H](C)CC)NC(=O)[C@H](CO)NC(=O)[C@H](CCCCN)NC(=O)[C@H](CCCCN)NC(=O)[C@@H](NC(=O)[C@H](CCCNC(=N)N)NC(=O)[C@H](CCCNC(=N)N)NC(=O)[C@@H](N)CCCNC(=N)N)CSSC[C@@H](C(=O)N[C@@H](Cc2ccccc2)C(N)=O)NC1=O [inhibitor 3, Arg-Arg-Arg-Cys(&)-Lys-Lys-Ser-Ile-Pro-Pro-Ile-Cys(&)-Phe-NH2] (H-RRRCKKSIPPICF-NH2; disulfide 4-12)
[1]
  effect on furin-like activity in PANC-1 cell lysate: reduced furin-like activity
[2]
  remaining at 5 h: ~25%
  state of peptide in human serum: completely degraded

## CC[C@H](C)[C@@H]1NC(=O)[C@@H]2CCCN2C(=O)[C@@H]2CCCN2C(=O)[C@H]([C@@H](C)CC)NC(=O)[C@H](CO)NC(=O)[C@H](CCCCN)NC(=O)[C@H](CCCCN)NC(=O)[C@@H]2CSSC[C@H](NC1=O)C(=O)N[C@@H](Cc1ccccc1)C(=O)N[C@@H](CCCNC(=N)N)C(=O)N[C@@H](CCCNC(=N)N)C(=O)N[C@@H](CCCNC(=N)N)C(=O)N2 [inhibitor 6, &^1Arg-Arg-Arg-Cys(&^2)-Lys-Lys-Ser-Ile-Pro-Pro-Ile-Cys(&^2)-Phe&^1] (cyclo(RRRCKKSIPPICF); disulfide 4-12)
[1]
  effect on furin-like activity in PANC-1 cell lysate: reduced furin-like activity
[2]
  remaining at 48 h: ~28%

## CC[C@H](C)[C@@H]1NC(=O)[C@@H]2CCCN2C(=O)[C@@H]2CCCN2C(=O)[C@H]([C@@H](C)CC)NC(=O)[C@H](CO)NC(=O)[C@H](CCCCN)NC(=O)[C@H](CCCCN)NC(=O)[C@@H](NC(=O)[C@H](CCCNC(=N)N)NC(=O)[C@@H](N)CCCCN)CSSC[C@@H](C(=O)N[C@@H](Cc2ccccc2)C(N)=O)NC1=O [FI, Lys-Arg-Cys(&)-Lys-Lys-Ser-Ile-Pro-Pro-Ile-Cys(&)-Phe-NH2, reference compound] (H-KRCKKSIPPICF-NH2; disulfide 3-11; N-terminus assumed)
[1]
  effect on furin-like activity in PANC-1 cell lysate: reduced furin-like activity
[1]; without SFTI-1
  reduction of initial enzyme activity in PANC-1 cell lysate: about 50%
[2]
  remaining at 5 h: ~15%
  state of peptide in human serum: completely degraded

## CC[C@H](C)[C@@H]1NC(=O)[C@@H]2CCCN2C(=O)[C@@H]2CCCN2C(=O)[C@H]([C@@H](C)CC)NC(=O)[C@H](CO)NC(=O)[C@H](CCCCN)NC(=O)[C@H](CCCCN)NC(=O)[C@@H]2CSSC[C@H](NC1=O)C(=O)N[C@@H](Cc1ccccc1)C(=O)N[C@@H](CCCCN)C(=O)N[C@@H](CCCNC(=N)N)C(=O)N[C@@H](CCCNC(=N)N)C(=O)N2 [inhibitor 5, &^1Lys-Arg-Arg-Cys(&^2)-Lys-Lys-Ser-Ile-Pro-Pro-Ile-Cys(&^2)-Phe&^1] (cyclo(KRRCKKSIPPICF); disulfide 4-12)
[1]
  effect on furin-like activity in PANC-1 cell lysate: reduced furin-like activity
[2]
  remaining at 48 h: ~59%
